Assay results published in US10479780B2, “Aminopyrazole derivatives” (Chugai Seiyaku Kabushiki Kaisha, priority 2015, dated 2019).
Like-named read-outs stand apart in the source and are kept apart here.

Legend:
Assay type in all cases: biochemical
human Src enzyme = molecular target: T1, human Src enzyme (Homo sapiens, UniProt P12931); test: Src enzyme inhibitory activity (time-resolved fluorometry, biotinylated peptide phosphorylation); conditions: read-out: SRC_IC50
T1 construct: purchased Carna Biosciences, Inc. 08-173
Procedure, shortened: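 Compounds were tested for blocking tyrosine phosphorylation of a biotinylated peptide substrate by recombinant human Src. Phosphorylated product was quantified by time-resolved fluorometry using europium cryptate and XL665 conjugates, and IC50 was calculated against the compound-free control.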

human Yes1 enzyme = molecular target: T2, human Yes1 enzyme (Homo sapiens, UniProt P07947); test: Yes1 enzyme inhibitory activity (time-resolved fluorometry, biotinylated peptide phosphorylation); conditions: read-out: YES_IC50
T2 construct: made in house
Procedure, shortened: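 Inhibition was expressed against a compound-free control to give IC50, using TR-FRET read-out (Eu-cryptate anti-pTyr antibody, streptavidin-XL665).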

human Lck enzyme = molecular target: T3, human Lck enzyme (Homo sapiens, UniProt P06239); test: Lck enzyme inhibitory activity (time-resolved fluorometry, biotinylated peptide phosphorylation); conditions: read-out: LCK_IC50
T3 construct: purchased Carna Biosciences, Inc. 08-170
Procedure, shortened: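 Readout pairs a europium cryptate-labelled anti-phosphotyrosine antibody with XL665-streptavidin, measured by time-resolved fluorescence. IC50 derived from percent inhibition against untreated controls.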

[1] = biotinylated peptide phosphorylation

T1 sequence (P12931 whole entry): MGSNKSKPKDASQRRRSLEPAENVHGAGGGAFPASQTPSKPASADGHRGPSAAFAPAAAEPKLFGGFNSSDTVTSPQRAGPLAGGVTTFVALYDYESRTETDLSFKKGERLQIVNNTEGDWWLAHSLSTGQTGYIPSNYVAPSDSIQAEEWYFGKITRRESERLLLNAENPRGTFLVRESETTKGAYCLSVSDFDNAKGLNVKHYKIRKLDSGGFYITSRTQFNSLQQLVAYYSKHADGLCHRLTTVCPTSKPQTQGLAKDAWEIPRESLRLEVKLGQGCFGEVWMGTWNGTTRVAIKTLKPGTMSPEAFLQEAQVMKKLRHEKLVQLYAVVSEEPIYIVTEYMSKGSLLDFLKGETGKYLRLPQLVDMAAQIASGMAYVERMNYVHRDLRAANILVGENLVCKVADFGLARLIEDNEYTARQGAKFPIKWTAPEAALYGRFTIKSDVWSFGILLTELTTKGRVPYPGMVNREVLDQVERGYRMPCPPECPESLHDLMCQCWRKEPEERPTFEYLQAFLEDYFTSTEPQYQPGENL
T2 sequence (P07947 whole entry): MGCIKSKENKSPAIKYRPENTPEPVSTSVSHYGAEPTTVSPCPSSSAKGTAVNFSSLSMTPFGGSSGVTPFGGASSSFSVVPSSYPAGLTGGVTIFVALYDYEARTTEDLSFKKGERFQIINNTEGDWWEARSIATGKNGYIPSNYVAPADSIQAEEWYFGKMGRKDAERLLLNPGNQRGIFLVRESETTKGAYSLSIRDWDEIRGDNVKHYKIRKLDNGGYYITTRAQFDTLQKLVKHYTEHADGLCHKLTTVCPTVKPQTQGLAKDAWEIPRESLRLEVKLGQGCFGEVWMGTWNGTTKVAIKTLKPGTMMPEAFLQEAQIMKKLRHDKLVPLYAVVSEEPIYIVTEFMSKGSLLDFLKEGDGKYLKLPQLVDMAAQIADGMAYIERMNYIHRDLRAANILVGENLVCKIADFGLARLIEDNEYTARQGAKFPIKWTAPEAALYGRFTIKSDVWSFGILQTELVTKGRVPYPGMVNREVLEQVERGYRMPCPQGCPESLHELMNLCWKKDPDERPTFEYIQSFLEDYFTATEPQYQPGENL
T3 sequence (P06239 whole entry): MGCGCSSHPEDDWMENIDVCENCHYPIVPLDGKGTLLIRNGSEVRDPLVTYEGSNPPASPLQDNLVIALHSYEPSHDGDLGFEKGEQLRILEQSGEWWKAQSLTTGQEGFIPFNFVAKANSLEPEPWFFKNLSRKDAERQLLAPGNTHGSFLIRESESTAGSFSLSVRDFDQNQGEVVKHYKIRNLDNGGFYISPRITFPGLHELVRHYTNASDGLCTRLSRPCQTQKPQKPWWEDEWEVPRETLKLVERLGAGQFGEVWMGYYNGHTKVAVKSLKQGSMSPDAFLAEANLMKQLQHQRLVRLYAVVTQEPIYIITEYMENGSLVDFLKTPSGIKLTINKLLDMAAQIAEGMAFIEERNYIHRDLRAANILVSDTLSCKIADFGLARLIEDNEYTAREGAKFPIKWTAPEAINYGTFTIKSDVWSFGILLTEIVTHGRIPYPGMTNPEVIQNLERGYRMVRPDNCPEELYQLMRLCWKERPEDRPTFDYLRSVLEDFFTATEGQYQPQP

IC50 (human Src enzyme; [1])	IC50 (human Yes1 enzyme; [1])	IC50 (human Lck enzyme; [1])	IC50 (human Src enzyme)	IC50 (human Yes1 enzyme)	IC50 (human Lck enzyme)	Compound
			100 nM	3 nM	7.2 nM	Cc1cc(Oc2c(F)cccc2F)ncc1-n1ncc(C(=O)c2cc3cc(F)c(N4C(=O)NC5(CC5)C4=O)cc3[nH]2)c1N [Example 5-1-343, 6-[2-[5-amino-1-[6-(2,6-difluorophenoxy)-4-methylpyridin-3-yl]pyrazole-4-carbonyl]-5-fluoro-1H-indol-6-yl]-4,6-diazaspiro[2.4] heptane-5,7-dione]
			230 nM	10 nM	19 nM	Cc1cc(Oc2c(F)cccc2F)ncc1-n1ncc(C(=O)c2cc3cc(SC(F)F)c(N4C(=O)NC(C)(C)C4=O)cc3[nH]2)c1N [Example 5-1-324, 3-[2-[5-amino-1-[6-(2,6-difluorophenoxy)-4-methylpyridin-3-yl]pyrazole-4-carbonyl]-5-(difluoromethylsulfanyl)-1H-indol-6-yl]-6,5-dimethylimidazolidine-2,4-dione]
84 nM	1.1 nM	17 nM				Cc1cc(Oc2ccccc2F)ncc1-n1ncc(C(=O)c2cc3cc(F)c(N4CC(C)(C)NS4(=O)=O)cc3[nH]2)c1N [Example 5-1-421, [5-amino-1-[6-(2-fluorophenoxy)-4-methylpyridin-3-yl]pyrazol-4-yl]-[6-(4,4-dimethyl-1,1-dioxo-1,2,5-thiadiazolidin-2-yl)-5-fluoro-1H-indol-2-yl]methanone]
1500 nM	19 nM	320 nM				Cc1cc2cc(C(=O)c3cnn(-c4cnc(Oc5c(F)cccc5F)cc4C)c3N)[nH]c2cc1NS(=O)(=O)c1cccc(Cl)c1 [Example 5-1-557, N-[2-[5-amino-1-[6-(2,6-difluorophenoxy)-4-methylpyridin-3-yl]pyrazole-4-carbonyl]-5-methyl-1H-indol-6-yl]-3-chlorobenzenesulfonamide]
1300 nM	17 nM	750 nM				Cc1cc(Oc2ccccc2F)ncc1-n1ncc(C(=O)c2cc3cc(F)c(NS(=O)(=O)c4c(F)cc(F)cc4F)cc3[nH]2)c1N [Example 5-1-568, N-[2-[5-amino-1-[6-(2-fluorophenoxy)-4-methylpyridin-3-yl]pyrazole-4-carbonyl]-5-fluoro-1H-indol-6-yl]-2,4,6-trifluorobenzenesulfonamide]
7.7 nM	0.44 nM	2.7 nM				Cc1cc2cc(C(=O)c3cnn(-c4ccc(Oc5ccccc5F)cc4C)c3N)[nH]c2cc1N1C(=O)[C@@H]2C[C@@H](O)CN2C1=O [Example 5-1-459, (6R,7aS)-2-[2-[5-amino-1-[4-(2-fluorophenoxy)-2-methylphenyl]pyrazole-4-carbonyl]-5-methyl-1H-indol-6-yl]-6-hydroxy-5,6,7,7a-tetrahydropyrrolo[1,2-c]imidazole-1,3-dione]
			560 nM	22 nM	79 nM	Cc1cc(Oc2c(F)cccc2F)ncc1-n1ncc(C(=O)c2cc3cc(F)c(N4C(=O)NC5(CCCCC5)C4=O)cc3[nH]2)c1N [Example 5-1-369, 3-[2-[5-amino-1-[6-(2,6-difluorophenoxy)-4-methylpyridin-3-yl]pyrazole-4-carbonyl]-5-fluoro-1H-indol-6-yl]-1,3-diazaspiro[4.5]decane-2,4-dione]

Continued, compound first:

Compound	IC50 (human Src enzyme; [1])	IC50 (human Yes1 enzyme; [1])	IC50 (human Lck enzyme; [1])	IC50 (human Src enzyme)	IC50 (human Yes1 enzyme)	IC50 (human Lck enzyme)
Cc1cc(Oc2cccc(Cl)c2)cc(F)c1-n1ncc(C(=O)c2cc3cc(F)c(NS(=O)(=O)C4CC4)cc3[nH]2)c1N [Example 4-7-012, N-[2-[5-amino-1-[4-(3-chlorophenoxy)-2-fluoro-6-methylphenyl]pyrazole-4-carbonyl]-5-fluoro-1H-indol-6-yl]cyclopropanesulfonamide]	330 nM	14 nM	160 nM			
Cc1cc(Oc2ccccc2F)ccc1-n1ncc(C(=O)c2cc3cc(F)c(N4C(=O)C(C)(C)NC4=S)cc3[nH]2)c1N [Example 5-1-126, 3-[2-[5-amino-1-[4-(2-fluorophenoxy)-2-methylphenyl]pyrazole-4-carbonyl]-5-fluoro-1H-indol-6-yl]-5,5-dimethyl-2-sulfanylideneimidazolidin-4-one]				64 nM	0.87 nM	15 nM
Cc1cc(Oc2cccc(F)c2F)cc(F)c1-n1ncc(C(=O)c2cc3cc(F)c(NS(=O)(=O)C4CC4)cc3[nH]2)c1N [Example 4-7-006, N-[2-[5-amino-1-[4-(2,3-difluorophenoxy)-2-fluoro-6-methylphenyl]pyrazole-4-carbonyl]-5-fluoro-1H-indol-6-yl]cyclopropanesulfonamide]	380 nM	7 nM	160 nM			
Cc1cc(Oc2c(F)cccc2F)ncc1-n1ncc(C(=O)c2cc3cc(OC4CCN(C5CS(=O)(=O)C5)CC4)c(-c4ccccc4F)cc3[nH]2)c1N [Example 5-1-311, [5-amino-1-[6-(2,6-difluorophenoxy)-4-methylpyridin-3-yl]pyrazol-4-yl]-[5-[1-(1,1-dioxothietan-3-yl)piperidin-4-yl]oxy-6-(2-fluorophenyl)-1H-indol-2-yl]methanone]				48 nM	3.6 nM	15 nM
CC(C)N1CCC(c2cc3[nH]c(C(=O)c4cnn(-c5ccc(Oc6cccc(F)c6)cc5)c4N)cc3cc2F)CC1 [Example 5-1-014, [5-amino-1-[4-(3-fluorophenoxy)phenyl]pyrazol-4-yl]-[5-fluoro-6-(1-propan-2-ylpiperidin-4-yl)-1H-indol-2-yl]methanone]				43 nM	2.4 nM	3 nM
Cc1cc(-n2ncc(C(=O)c3cc4cc(OCC(F)F)c(-c5cnn(C)c5)cc4[nH]3)c2N)ccc1Oc1ccccc1F [Example 5-1-263, [5-amino-1-[4-(2-fluorophenoxy)-3-methylphenyl]pyrazol-4-yl]-[5-(2,2-difluoroethoxy)-6-(1-methylpyrazol-4-yl)-1H-indol-2-yl]methanone]				2600 nM	19 nM	710 nM
Cc1cc(Oc2ccccc2F)cc(C)c1-n1ncc(C(=O)c2cc3cc(F)c(NS(=O)(=O)CCCF)cc3[nH]2)c1N [Example 5-1-040, N-[2-[5-amino-1-[4-(2-fluorophenoxy)-2,6-dimethylphenyl]pyrazole-4-carbonyl]-5-fluoro-1H-indol-6-yl]-3-fluoropropane-1-sulfonamide]				280 nM	13 nM	88 nM
Cc1cc(Oc2c(F)cccc2F)ncc1-n1ncc(C(=O)c2cc3cc(OC(F)F)c(N)cc3[nH]2)c1N [Example 5-1-074, [6-amino-5-(difluoromethoxy)-1H-indol-2-yl]-[5-amino-1-[6-(2,6-difluorophenoxy)-4-methylpyridin-3-yl]pyrazol-4-yl]methanone]				25 nM	1.6 nM	3.2 nM
Cc1cc(Oc2c(F)cccc2F)ncc1-n1ncc(C(=O)c2cc3cc(OC(F)F)c(C4CCN(C(=O)OC(C)(C)C)CC4)cc3[nH]2)c1N [Example 4-1-012, tert-butyl 4-[2-[5-amino-1-[6-(2,6-difluorophenoxy)-4-methylpyridin-3-yl]pyrazole-4-carbonyl]-5-(difluoromethoxy)-1H-indol-6-yl]piperidine-1-carboxylate]	90 nM	34 nM	39 nM			
